These results are taken from PubChem BioAssay (NCI).

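96-well plates; 48 h exposure; 5 concentrations. Endpoints by linear interpolation between flanking doses. Not reached: highest tested concentration assigned. GI50 marks 50% less growth. TGI: total growth inhibition.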

Experiment in all cases: NCI-60 cell line screen, 48 h
Experiment [1] deals with 786-0 renal.
Experiment [2] deals with ACHN renal.
In experiment [3] the test system is K-562 leukemia.
Experiment [4] deals with KM12 colon.
In experiment [5] the test system is MDA-MB-231 breast.
In experiment [6] the test system is OVCAR-4 ovarian.
Experiment [7] relates to OVCAR-8 ovarian.
Experiment [8] has as its system SK-MEL-5 melanoma.
The test system of experiment [9] is U251 CNS.
Experiment [10] deals with UACC-62 melanoma.

For the compound `O=C1Nc2c(ccc(Cl)c2Cl)/C1=C/c1cc(Br)c(O)c(Br)c1`, the GI50 in experiment [1] was 6.62 µM; in experiment [2], 9.86 µM; in [3], 5.57 µM; in [4], 4.75 µM; in [5] it was 6.81 µM; in experiment [6], 5.69 µM. In addition, the GI50 was 10 µM in experiment [7], 2.6 µM in experiment [8], 6.42 µM in experiment [9] and 2.49 µM in experiment [10]. Moreover, the TGI was 78.7 µM in [1]; over 86.4 µM in [2]; over 100 µM in [3]; 40.2 µM in experiment [4]; 49.6 µM in experiment [5]; over 100 µM in [6]. Moreover, the TGI was over 100 µM in experiment [7], 10.2 µM in experiment [8], 43.1 µM in experiment [9] and 13.3 µM in experiment [10].

Consider `Cc1c(-c2cnccn2)ssc1=S`, for which the TGI in experiment [1] is over 77.4 µM; in experiment [2], over 100 µM; in [3], over 100 µM; in experiment [4], over 100 µM; in experiment [5], over 100 µM; in experiment [6], over 100 µM. Further, the TGI in [7], in experiment [8], in experiment [9] and in [10] was over 100 µM in each case.

For `Cc1cc2nc(NCCN)n(Cc3ccc(F)c(Cl)c3)c2cc1C`, the GI50 in experiment [1] was 10.2 µM; in experiment [2], 11.2 µM; in experiment [3], 2.57 µM; in experiment [4], 5.28 µM; in experiment [5] it was 2.68 µM; in [6] it was 14 µM. Further, the GI50 was 17 µM in experiment [7], 14.4 µM in experiment [8], 12.3 µM in experiment [9] and 13.3 µM in experiment [10]. Also, the TGI was 23.3 µM in experiment [1]; 24.7 µM in [2]; 6.97 µM in experiment [3]; 18.6 µM in [4]; 9.44 µM in experiment [5]; 28.3 µM in experiment [6]. In addition, the TGI came to 33.1 µM in experiment [7], 27.6 µM in experiment [8], 25.1 µM in experiment [9] and 27.2 µM in experiment [10].

For `O=C(O)c1cc(-c2ccc3cc4c(cc3c2)OCO4)nc2ccccc12`, the TGI in [1], in experiment [2], in experiment [3], in experiment [4], in experiment [5] and in [6] was over 100 µM in each case. Besides, the TGI in experiment [7], in [8], in experiment [9] and in experiment [10] was over 100 µM each time.

With `COc1c/c(=C2\C=c3ccccc3=N2)[nH]/c1=C\c1[nH]c(C)cc1C`, the GI50 in experiment [1] was 0.048 µM; in [2], under 0.0224 µM; in experiment [3] it was 0.0685 µM; in [4] it was 0.0216 µM; in experiment [5], 0.0117 µM; in [6], 0.0638 µM. Moreover, the GI50 in [7] is 0.214 µM; in experiment [8], under 0.0105 µM; in [9], under 0.0337 µM; in experiment [10] it was 0.0134 µM. Besides, the TGI in experiment [1] was found to be 4.21 µM; in experiment [2], 2.33 µM; in [3], 8.33 µM; in experiment [4] it was 10.6 µM; in [5] it was 3.87 µM; in experiment [6], 4.83 µM. For the same compound, the TGI is over 21.8 µM in experiment [7], 0.0352 µM in experiment [8], 6.28 µM in experiment [9] and 0.0268 µM in experiment [10].

For `Cc1nc([N+](=O)[O-])cn1-c1nc2ccccn2c1[N+](=O)[O-]`, the TGI in experiment [1], in [2], in experiment [3], in experiment [4], in [5] and in experiment [6] was over 100 µM in each case. Also, the TGI in experiment [7], in experiment [8], in [9] and in experiment [10] was over 100 µM in each case.

With `Oc1c(Cl)cc(Cl)c(Cl)c1CNCCNCc1c(O)c(Cl)cc(Cl)c1Cl`, the GI50 in [1] is 1.48 µM; in experiment [2], 0.549 µM; in [3], 0.483 µM; in experiment [4] it was 0.963 µM; in experiment [5] it was 2.27 µM; in experiment [6] it was 0.41 µM. In addition, the GI50 is 0.911 µM in experiment [7], 1.35 µM in experiment [8], 0.556 µM in experiment [9] and 0.917 µM in experiment [10]. The TGI in experiment [1] is 8.43 µM; in [2], 7.22 µM; in [3], over 50 µM; in experiment [4], 8 µM; in experiment [5], 16.6 µM; in experiment [6], 7.87 µM. Moreover, the TGI in experiment [7] turned out to be 7.72 µM; in experiment [8], 8.06 µM; in experiment [9], 6.61 µM; in experiment [10], 5.45 µM.

Consider `Cc1cnc2n1S(=O)(=O)c1cc(C(=O)Nc3cccc4nsnc34)c(Cl)cc1S2`, for which the GI50 was over 100 µM in experiment [1]; 27.8 µM in experiment [2]; 40.8 µM in experiment [3]; 17.6 µM in [4]; 12.4 µM in experiment [5]; 27.8 µM in experiment [6]. The GI50 in experiment [7] was 33.6 µM; in [8] it was 26.4 µM; in [9] it was 31.6 µM; in experiment [10], 17.1 µM. Besides, the TGI is over 100 µM in experiment [1]; 85.5 µM in experiment [2]; over 100 µM in experiment [3]; 33.4 µM in [4]; 30.3 µM in experiment [5]; 75.4 µM in experiment [6]. Besides, the TGI in experiment [7] was over 100 µM; in experiment [8], 98.1 µM; in [9], over 100 µM; in experiment [10], 32.9 µM.
